The values that follow come from patent US12577227B2, “WDR5 inhibitors and modulators” (Vanderbilt University, priority 2019, dated 2026).

This assay has as its system MV4:11 human cancer cell lines. The assay can be described thus: Cellular viability / anti-proliferative activity (CellTiter-Glo). Type of assay: cell-based. As to conditions: MV4-11, 120 h, MV-4-11 cells, 5 day protocol, mean of minimum two replicates, read-out: GI50 on cellular proliferation of MV4:11 human cancer cell lines. The gist of the method: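 MV-4-11 cells in IMDM/10% FBS, 200 cells per well, exposed 5 days to 22 two-fold dilutions from 30 μM (0.3% DMSO final). Viability read by CellTiter-Glo luminescence; GI50 from sigmoidal dose-response, mean of at least two replicates.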
For orientation: Cellular ATP, detected with luciferase, serves as a proxy for viable cell number.
With `Cc1cc(C)nc(CN2CCOc3c(cc(Cn4ccnc4C)cc3-c3cccnc3C(F)(F)F)C2=O)c1` [Example 42, 4-((4,6-Dimethylpyridin-2-yl)methyl)-7-((2-methyl-1H-imidazol-1-yl)methyl)-9-(2-(trifluoromethyl)pyridin-3-yl)-3,4-dihydrobenzo[f][1,4]oxazepin-5(2H)-one], the GI50 stood at 282 nM.
For `COc1cc(CN2CCOc3c(cc(Cn4ccccc4=N)cc3-c3ccc(F)cc3C)C2=O)cc(OC)c1` [Example 8, 4-(3,5-Dimethoxybenzyl)-9-(4-fluoro-2-methylphenyl)-7-((2-iminopyridin-1(2H)-yl)methyl)-3,4-dihydrobenzo[f][1,4]oxazepin-5(2H)-one], the GI50 turned out to be 355 nM.
With `COc1cc(CN2CCOc3c(cc(Cn4ccn(C)c4=N)cc3-c3ccc(F)cc3C)C2=O)cc(OC)c1` [Example 3, 4-(3,5-Dimethoxybenzyl)-9-(4-fluoro-2-methylphenyl)-7-((2-imino-3-methyl-2,3-dihydro-1H-imidazol-1-yl)methyl)-3,4-dihydrobenzo[f][1,4]oxazepin-5(2H)-one], the GI50 was 19 nM.
For the compound `CCc1cc(C(=O)NCCOC)c2nccc(N3CCOc4c(cc(Cn5ccnc5)cc4-c4cn(C)nc4C(F)(F)F)C3=O)c2c1` [Example 74, 4-(7-((1H-imidazol-1-yl)methyl)-9-(1-methyl-3-(trifluoromethyl)-1H-pyrazol-4-yl)-5-oxo-2,3-dihydrobenzo[f][1,4]oxazepin-4(5H)-yl)-6-ethyl-N-(2-methoxyethyl)quinoline-8-carboxamide], the GI50 amounted to 458 nM.
Regarding `Cc1cc(C)nc(CN2CCOc3c(cc(Cn4ccnc4C)cc3-c3sc(C)nc3C)C2=O)c1` [Example 43, 4-((4,6-Dimethylpyridin-2-yl)methyl)-9-(2,4-dimethylthiazol-5-yl)-7-((2-methyl-1H-imidazol-1-yl)methyl)-3,4-dihydrobenzo[f][1,4]oxazepin-5(2H)-one], the GI50 turned out to be 159 nM.
As for `CCOC(=O)c1cc(CC)cc2c(N3CCOc4c(cc(Cn5ccnc5)cc4-c4cn(C)nc4C(F)(F)F)C3=O)ccnc12` [Example 66, Ethyl 4-(7-((1H-imidazol-1-yl)methyl)-9-(1-methyl-3-(trifluoromethyl)-1H-pyrazol-4-yl)-5-oxo-2,3-dihydrobenzo[f][1,4]oxazepin-4(5H)-yl)-6-ethylquinoline-8-carboxylate], the GI50 worked out at 772 nM.
The result for `COc1cc(Cn2cnc3c(-c4ccc(F)cc4C)cc(Cc4c[nH]c5ccccc45)cc3c2=O)cc(OC)c1` [Example 2, 6-((1H-Indol-3-yl)methyl)-3-(3,5-dimethoxybenzyl)-8-(4-fluoro-2-methylphenyl)quinazolin-4(3H)-one] reads more than 940 nM; that for `COc1cc(CN2CCOc3c(cc(Cn4ccn(C)c4=N)cc3-c3cn(C)nc3C(F)(F)F)C2=O)cc(OC)c1` [Example 16, 4-(3,5-Dimethoxybenzyl)-7-((2-imino-3-methyl-2,3-dihydro-1H-imidazol-1-yl)methyl)-9-(1-methyl-3-(trifluoromethyl)-1H-pyrazol-4-yl)-3,4-dihydrobenzo[f][1,4]oxazepin-5(2H)-one], 79 nM.
